# Legend:
# HSV-1 ICP0 = assay: Real-time RT-PCR of HSV-1 ICP0 transcript in HEp-2 cells; type: cell-based; settings: 12 and 24 hpi, versus DMSO
# Source text: The total transcript levels were quantified using actin expression as an internal control. The cDNA obtained immediately after the virus and drug transfection(s) was set as a baseline value. The normalized expression values were transformed to the log 10 value. The data plot represents mean t standard error calculated from three replicates.
# Following instructions of the manufacturers, total RNA was isolated using Tri Reagent® (Ambion, Inc., Austin, Tex.). To quantitatively examine the mRNA level of HSV-1 ICP0 from the infected cells, real-time RT-PCR was undertaken using the QuantiTect SYBR Green RT-PCR kit (QIAGEN, Valencia, Calif.). […] Fluorescence (captured at 80° C.) was determined to be absent from the signal generated by primer dimers. Data were collected and recorded by the BIORAD CFX Manager software. The relative quantity of the ICP0 transcripts at the indicated time points was normalized to the relative quantity of the reference gene actin at the same time points and then the log10 copy number of the normalized RNA transcripts were calculated and presented on a bar chart. A melting temperature curve analysis was obtained by measuring (after the amplification cycles) the fluorescence during a period of warming from 60° C. to 95° C. […]
# [1] = target: T1, recombinant RACK1A protein (Oryza sativa subsp. japonica, UniProt Q6L4F8); assay: Surface Plasmon Resonance (SPR) binding assay; set-up: species or system rice; settings: immobilized recombinant RACK1A, KD50=kd/ka
# T1 construct: His tag (C); made in house; host or cells: E. coli BL21(DE3)
# T1 sequence (Q6L4F8 whole entry): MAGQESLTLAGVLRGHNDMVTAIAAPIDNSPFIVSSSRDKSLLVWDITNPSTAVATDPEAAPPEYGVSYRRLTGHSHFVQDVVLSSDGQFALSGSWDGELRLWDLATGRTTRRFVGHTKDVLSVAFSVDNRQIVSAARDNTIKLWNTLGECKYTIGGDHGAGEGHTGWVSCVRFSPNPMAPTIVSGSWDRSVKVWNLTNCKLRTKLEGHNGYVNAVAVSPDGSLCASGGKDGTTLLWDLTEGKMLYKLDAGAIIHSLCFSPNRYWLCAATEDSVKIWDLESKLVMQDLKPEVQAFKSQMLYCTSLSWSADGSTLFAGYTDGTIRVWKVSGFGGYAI
# Experimental: SD-29 (left panel) and SD-29-12 (right panel) were separately injected three times on the CM5 chip at 0, 1.56 μM, at 3.13 μM, 6.25 μM, 12.5 μM, 25 μM, 50 μM, and 100 μM (top sensor) concentrations (left panel) and at 3.13 μM, 6.25 μM, 12.5 μM, 25 μM, 50 μM, and 100 μM (top sensor) concentrations (right panel).
# To obtain in vitro confirmation of the binding of the isolated compounds to the purified RACK1 protein, the small compound SD-29 and its structural analog SD29-12 were evaluated for their binding potential with the recombinant RACK1A proteins using the Surface Plasmon Resonance (SPR) chip. SPR experiments were carried out with a Biacore T200 equipped with a CM5 sensor chip. Briefly, recombinant RACK1A cysteine-tagged protein was immobilized on flow cell (FC) 2 in HEPES buffered saline (10 mM Hepes, pH 7.4, and 150 mM NaCl, 3 mM CaCl2)) using a thiol-coupling kit according to the manufacturer's protocol, resulting in immobilization levels of 4580 response units (RU). FC1 was only activated and inactivated and used as a reference. SD-29 stock solution was diluted to a final concentration of 100, 75, 50, 25, 10 μM and 1 μM injected in 10 mM Hepes, 150 mM NaCl, 3 mM CaCl2), 1% DMSO, and 0.5% P20. Each injection was repeated three times for 60 s. […] KD50 is calculated by the equation: KD50=kd/ka; kd—dissociation rate constant, ka—association rate constant. […]
# HSV-1 = assay: Plaque formation unit (pfu) assay; type: cell-based
# Experimental: The viral plaque assay was performed as previously described [Tang Q, Li L, Ishov A M, Revol V, Epstein A L, Maul G G. Determination of minimum herpes simplex virus type 1 components necessary to localize transcriptionally active DNA to ND10. J Virol. 2003; 77:5821-28.] with slight modifications. The HSV-1 strain 17 was diluted serially in a volume of 1 mL. Then 300 ul of the virus was added onto confluent HEp-2 cell monolayers in 12-well plates; each dilution had 3 wells. After adsorption for 2 h, the medium was removed and the cells were washed twice with serum-free DMEM and overlaid with phenol-free DMEM containing 5% FCS, 0.5% low-melting point agarose (GIBCO), and 1% penicillin-streptomycin. The cells were incubated at 37° C. for 48 hours. Neutral red was added on the agarose to stain the live cells. The plaques were counted and reported as pfu per mL. Mean pfu was determined after averaging the number of pfu from different dilutions. Student's t-tests were used to statistically analyze differences between the groups; a p-value lower than 0.005 was used as the threshold for a significant difference.
# To assess the efficacy of SD-29 on the HSV-1 proliferation, a plaque assay was performed. We wanted to quantitatively assess whether SD-29 could inhibit viral replication. Because HSV-1 was able to enter cultured HEp-2 cells, we evaluated whether this entry led to productive virus replication.
# In Table 1, confluent monolayers of HEp-2 cells were infected with serially diluted HSV-1 virus and were fixed and Giemsa stained at 0, 6, 12, and 24 hr post infection. The numbers of plaques were visualized. The number of plaques formed post infection decreased in the presence of SD-29 in a time-dependent manner.
# HEp-2 cells = assay: Trypan blue exclusion cell viability; type: cell-based; settings: 24-hour treatment
# Experimental: In order to assess whether the compounds are producing any toxicity that can led to the cell deaths, we evaluated the cell viability by the trypan blue exclusion method. As long-term inhibition of RACK1 expression has been reported to cell cycle arrest, we limited our experimental treatments to 24 h and evaluated the cell viability of almost full confluent cells after 24 h of compound treatment.
# In table 2, the viability of cells was measured with Trypan blue exclusion assay in a Cellometer (Nexcelom, Lawrence, Mass.). The percentage survival of the compound treated cells was evaluated along with the DMSO treated cells. The values represent the mean±SE of three separate well based replicates.
# RACK1A protein = assay: RACK1 protein expression under salt stress, western blot; type: in vivo; settings: Arabidopsis lysates
# Source text: The abundant leaf protein Rubisco large subunit (RbcL) was used as a loading control for the blot. The 37 kD RACK1 band was absent from the genetic knockout of RACK1 plants (double mutant-rack1ab lane).
# The reported positive expression of RACK1A protein under salt stress condition in Arabidopsis has led us to examine the RACK1A expression in the presence and absence of the inhibitor compounds during salt stresses. We determined that the RACK1A protein expression was specifically modulated by the inhibitor compounds when the lysates with salt or without salt in the presence and absence of the small compounds were probed with an antibody raised by using the full length RACK1A protein as antigen (Agrisera, Vännäs, Sweden, FIG. 2C). […] However, whether the effect of SD29-12 is Arabidopsis salt stress specific condition needs further experimental evidence. As the antibody cross-reacts with all three RACK1 isoforms in Arabidopsis, we used the double knockout (rack1ab) as a negative control on the blot (triple mutant is lethal at the early seedling stage). The large subunit of the abundant leaf protein rubisco (RbcL) was used as loading control for this blot. As the results support the in-silico based prediction, we set out to investigate the effect of the compounds on the mammalian RACK1 based virus proliferation.
# HSV1-Luc (R8411) = assay: HSV1-Luc bioluminescence luciferase assay in HEp-2 cells; type: cell-based, HSV-1; settings: 10 μM
# Experimental: (A) Hep-2 cells were incubated with the indicated compounds in the presence of HSV1-Luc virus at a concentration of 4×10^6 pfu/ml media. (B) Quantification of the luciferase signal from the samples in panel (A). Signals from three replicates from two separate experiments were combined to generate the average and the standard error bar.
# (§1) To 80-90% confluent HEp-2 cells, HSV-1-Luc (R8411) are added at a concentration of 2×10e^6 pfu/ml along with indicated concentration of inhibitor compounds. After the described incubation period, luciferase activity is evaluated from bioluminescence images acquired by a Perkin Elmer IVIS Spectrum Imaging system immediately after adding luciferase substrate (D-luciferin, Gold Bio Technology) at a concentration of 400 μg/mL in medium. Bioluminescence intensity in different wells is quantified in units of photons per second per centimetre squared per steradian (p/s/cm^2/sr) by drawing a polygonal region of interest over the signals in images using Living Image 3.0 software (Caliper Life Sciences).
# as §1, with “cells, HSV1-Luc” for “cells, HSV-1-Luc”, “(R8411) was” for “(R8411) are”, “activity was” for “activity is”, “wells was” for “wells is”, “per centimeter” for “per centimetre”
# To visualize the effect of the drugs on the proliferation of HSV-1, a luciferase tagged HSV-1 F strain expressing luciferase (R8411 mutant) under the control of ICP27 promoter was obtained [Horsburgh B C, Hubinette M M, Tufaro F. Genetic manipulation of herpes simplex virus using bacterial artificial chromosomes. Methods Enzymol. 1999; 306:337-52]. […] The same samples after incubation of 48 h were used to assay for HSV-1 ICP0 and RACK1 protein expression (B of FIG. 5). Depletion of RACK1 by the compounds correlated with the depletion of the viral ICP0 protein confirming earlier results shown in B of FIG. 3.
Structure (SMILES),ICP0 mRNA level (HSV-1 ICP0),Kd [1] [µM],Plaque formation unit (HSV-1; 0 hpi) [PFU/mL],Plaque formation unit (HSV-1; 6 hpi),Plaque formation unit (HSV-1; 12 hpi),Plaque formation unit (HSV-1; 24 hpi),"HEp-2 Cell viability, Mean (HEp-2 cells; 10 μM) [%]","HEp-2 Cell viability, Mean (HEp-2 cells; 100 μM) [%]",RACK1 protein expression under salt stress (RACK1A protein),HSV1-Luc proliferation (HSV1-Luc (R8411))
COc1ccc(-c2nnc(SCC(=O)O)n2N)cc1 [SD29-12],essentially showed the same level of ICP0 mRNA,58,0 ± 0,3.8 ± 0.07 × 10^2 PFU/mL,3.6 ± 0.04 × 10^3 PFU/mL,2.6 ± 0.03 × 10^6 PFU/mL,92.7,97.7,not,–
"Nc1nc2c(ncn2COCCO)c(=O)[nH]1 [acyclovir, reference compound]",–,–,–,–,–,–,–,–,–,showed inhibition of the HSV1-Luc proliferation

# Source: patent publication US11596623B2, “Methods for treating virus infection or proliferation” (HOWARD UNIVERSITY, priority 2018, dated 2023)
